In US12360023B2, “Method of pretreating blood sample” (LABTECHS Inc., priority 2017, dated 2025):

Tested on: Streptococcus agalactiae
Test: Viability of bacteria under detergent treatment
Type: cell-based

CCCCCCCCCCCCOS(=O)(=O)[O-].[Na+] [SDS, sodium dodecyl sulfate] was tested, and the “killing of bacteria by detergent” value (SDS concentration 0.05%) was “does not kill” and the “killing of bacteria by detergent” value (SDS concentration 0.1% or 0.2%) was “largely killed”.
